Reference: article PMC9774438, “Effects of Synthetic Short Cationic Antimicrobial Peptides on the Catalytic Activity of Myeloperoxidase, Reducing Its Oxidative Capacity” (Antioxidants, 2022)
Several values for one entry are separate records, joined by “and”; a condition that tells them apart may be missing. Equal entries are not always repeated. Where two headings read alike, the source gives them in different places. Where a SMILES comes first, the peptide text is derived from it.

Legend:
myeloperoxidase (MPO) [1] = target: T1, myeloperoxidase (MPO) (Homo sapiens, UniProt P05164); assay: Measurement of sulfhydryl groups with MPO/H2O2 (DTNB); type: biochemical; settings: for free sulfhydryl groups, percentage relative to CAMP + MPO without H2O2: 150 μM peptide, 1 μM MPO heme, 100 μM H2O2, 10 mM Na-phosphate pH 7.4, mean ± SD, * p < 0.05 where marked
T1 construct: Native myeloperoxidase (MPO) was obtained from human leukocyte extract by successive chromatography on heparin-Sepharose and phenyl-agarose; from tissue; host or cells: human leukocyte extract
Experimental: The peroxidase reaction was carried out in 10 mM Na-phosphate buffer, pH 7.4 (containing 0.2 mM DTPA), in a volume of 60 μl placed in the wells of a 96-well plate. Peptides were added to MPO (1 μM heme) to a concentration of 150 μM. Following 5 min of incubation, H2O2 (100 μM, final) was added to test samples to trigger the reaction. Control samples were the same except H2O2. The content of free sulfhydryl groups was estimated spectrophotometrically by using 5,5′-dithiobis(2-nitrobenzoic acid) (DTNB, Ellman’s reagent) prepared in 0.4 M Tris-HCl buffer, pH 9.0. At a desired time after the reaction was started, 120 μL aliquots of freshly prepared DTNB-containing buffer were added to one part of samples (160 μM DTNB, final) and […] of the buffer without DTNB was added to another part of the same samples. […] Absorbance in the absence of DTNB was subtracted from that in the presence of DTNB. The loss of sulfhydryl groups was expressed as a percentage relative to controls incubated without H2O2.
To determine an estimation of whether the cysteine residue of pept_1545 and Hm-AMP8 participated in MPO-mediated reactions, we compared the content of free sulfhydryl groups in the reaction mixtures of peptides (150 μM) with the MPO/H2O2 system (1 μM heme, 100 μM H2O2) and control samples containing peptides plus MPO with no added H2O2. Measurements of sulfhydryl groups were made at 5 min and 90 min of incubation (Table 2).

myeloperoxidase (MPO) [2] = target: T1, myeloperoxidase (MPO); assay: MPO peroxidase activity (Amplex Red assay); type: biochemical; settings: for IC50: 50 μM Amplex Red, 25 μM H2O2, 50 mM K-phosphate pH 7.4, 5 min preincubation; for Ki: 20 μM pept_1545 or 2 μM Hm-AMP8, 50 mM K-phosphate pH 7.4, Hanes–Woolf
Experimental: MPO peroxidase activity was evaluated fluorometrically using Amplex Red^TM reagent which was oxidized by MPO to the fluorescent resorufin (λex = 530 nm, λem = 590 nm). The assay was performed in 96-plate format. The final reaction mixture in 50 mM K-phosphate buffer (pH 7.4) was as follows: MPO, 8 nM heme; peptide, […]; H2O2, 25 μM; Amplex Red reagent, 50 μM. MPO was preincubated with peptides for 5 min in a volume of 100 μl. Then, Amplex Red was added, and the enzymatic reaction was initiated by adding H2O2 (a final probe volume of 200 μL per well). The fluorescence measurement was made with a CLARIOstar multimodal plate reader (BMG Labtech, Ortenberg, Germany) at 5 min after the beginning of the reaction. To determine the type of CAMP-induced inhibition, KM and Vmax were obtained by varying substrates of MPO: Amplex Red in a final concentration from 1 to 62.5 μM, or H2O2 in a final concentration from 0.625 to 20 μM.
(§1) The Hannes-Wolf plots were made as ([Substrate]/V = f([Substrate]). KM was equal in magnitude to the intercept made on the abscissa axis by the approximating straight line; Vmax was calculated as a reciprocal value of the straight-line slope. The inhibition constant (Ki) for noncompetitive inhibition was calculated as follows: Ki = [I]/((Vmax − Vmax’)/Vmax’); Ki for competitive inhibition was calculated as follows: Ki = [I]/((KM’ − KM)/KM); Ki for mixed inhibition was calculated as follows: Ki = [I]/(((KM’ − KM)/KM)^2 + ((Vmax − Vmax’)/Vmax’))^2)^0.5; and Ki for uncompetitive inhibition was calculated as follows: Ki = [I]/(((KM − KM’)/KM’)^2 + ((Vmax – Vmax’)/Vmax’))^2)^0.5, where [I]—concentration of inhibitor (CAMP), KM—Michaelis constant without inhibitor, Vmax—maximal rate without inhibitor, KM’—Michaelis constant in the presence of inhibitor, Vmax’—maximal rate in the presence of inhibitor.
From the experiments with varying concentrations of H2O2 (0.01–200 μM) and Amplex Red (6.25–100 μM), the optimal concentrations of 25 μM H2O2 and 50 μM Amplex Red were chosen for further work. The 0.8–50 μM concentration range (corresponding to 100–6250 peptide molecules per heme) was used to determine the concentration dependence of the effect of CAMPs on peroxidase activity of MPO.

myeloperoxidase (MPO) [3] = target: T1, myeloperoxidase (MPO); assay: MPO chlorinating activity (Celestine Blue B assay); type: biochemical; settings: for IC50: 0.8 nM MPO heme, 200 μM CB, 150 mM NaCl, 50 μM H2O2, 50 mM Na-acetate pH 5.5, 5 min preincubation
Experimental: MPO chlorinating activity was evaluated fluorometrically using Celestine Blue B (CB) which was oxidized to fluorescent glycol (λex = 487 nm, λem = 578 nm) by taurine N-chloramine produced in the reaction of taurine with HOCl generated by MPO [39]. The assay was performed in 96-plate format. MPO was preincubated with peptides for 5 min in a volume of 100 μL, with the concentrations being: MPO, 1.6 nM heme and peptide, 16 nM–16 μM. Then, 100 μL aliquots of CB-containing mix (CB, 400 µM; H2O2, 100 µM; taurine, 4 mM; KI, 10 µM; NaCl, 300 mM; 50 mM Na-acetate buffer, pH 5.5) were added to MPO/peptide and to 100 μL of HOCl standards (0–150 μM). The fluorescence measurement was made with a CLARIOstar multimodal plate reader (BMG Labtech, Ortenberg, Germany) at 15 min after the reaction started. Fluorescence intensity detected for HOCl standards of HOCl was used for calculating the chlorinating activity as mole of HOCl per mole of MPO heme per second. To determine the type of CAMP-induced inhibition, KM and Vmax were obtained by varying substrates of MPO: NaCl in a final concentration from 25 to 300 mM, or H2O2 in a final concentration from 5 to 80 µM.
as §1
Chlorinating activity is a distinctive feature of MPO as compared with other peroxidases and it is an important property, enabling MPO to combat microbes. We tested whether the inhibitory effects of pept_1545 and Hm-AMP8 on peroxidase activity extend to MPO chlorinating activity. Chlorinating activity was measured using a fluorometric CB-based assay. To determine the concentration dependence of the effect of CAMPs on MPO chlorinating activity, the 0.008–8 μM concentration range (corresponding to 10–10,000 peptide molecules per heme) was used.

MPO [4] = settings: cited from earlier work; for peroxidase substrate behaviour of free amino acid: literature statement
Text: Free tyrosine is known to be a peroxidase substrate, reacting rapidly with both Compounds I and II. […] MPO-catalyzed oxidation of tyrosine occurs in the absence as well as presence of chloride, which is accompanied by hastened HOCl production. […] In addition to cysteine, pept_1545 contains tryptophan, another redox active amino acid. […] Fluorescence measurements (λex = 290 nm, λem = 310–450 nm) were ...

MPO [5] = settings: MPO/H2O2 system; ref [57]; cited from earlier work
[6] = 0.625–20 μM H2O2, 50 μM Amplex Red, 8 nM MPO heme, read-out: Inhibition constant (Ki) towards H2O2, peroxidase activity
[7] = 1–62.5 μM Amplex Red, 25 μM H2O2, 8 nM MPO heme, read-out: Inhibition constant (Ki) towards Amplex Red
[8] = 8 μM pept_1545 or 0.8 μM Hm-AMP8, 25–300 mM NaCl, 50 μM H2O2, 0.8 nM MPO, 50 mM Na-acetate pH 5.5, Hanes–Woolf, read-out: Inhibition constant (Ki) towards Cl−
[9] = Ki towards H2O2 and Cl– (abstract, range over both substrates), chlorinating activity, pH 5.5

T1 sequence (P05164 279-745 limits assumed): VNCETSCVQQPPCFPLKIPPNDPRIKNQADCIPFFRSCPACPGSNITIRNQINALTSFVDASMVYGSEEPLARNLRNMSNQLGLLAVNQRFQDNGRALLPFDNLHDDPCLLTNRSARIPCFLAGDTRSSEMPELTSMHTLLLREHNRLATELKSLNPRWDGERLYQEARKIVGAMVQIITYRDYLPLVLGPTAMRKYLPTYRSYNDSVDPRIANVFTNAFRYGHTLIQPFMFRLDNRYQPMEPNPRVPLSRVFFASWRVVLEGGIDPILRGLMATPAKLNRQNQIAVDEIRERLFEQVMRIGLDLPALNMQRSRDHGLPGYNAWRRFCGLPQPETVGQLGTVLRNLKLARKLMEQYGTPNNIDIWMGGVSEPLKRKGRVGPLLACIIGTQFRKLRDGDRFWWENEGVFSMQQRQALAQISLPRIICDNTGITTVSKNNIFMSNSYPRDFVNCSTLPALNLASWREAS
T1 sequence (P05164 165-273 limits assumed): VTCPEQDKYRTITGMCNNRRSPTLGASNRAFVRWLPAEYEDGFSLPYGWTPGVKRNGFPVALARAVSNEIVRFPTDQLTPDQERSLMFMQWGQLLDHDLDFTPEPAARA

Compound: CC[C@H](C)[C@H](NC(=O)[C@H](C)NC(=O)[C@H](CC(N)=O)NC(=O)[C@H](Cc1ccc(O)cc1)NC(=O)[C@@H]1CCCN1C(=O)[C@@H](NC(=O)[C@H](CCCCN)NC(=O)[C@H](Cc1ccc(O)cc1)NC(=O)[C@@H](NC(=O)[C@@H](NC(=O)[C@H](C)NC(=O)[C@@H](N)CCCNC(=N)N)C(C)C)[C@@H](C)CC)[C@@H](C)CC)C(=O)N[C@@H](C)C(=O)N[C@@H](CO)C(=O)N[C@@H](CCCNC(=N)N)C(=O)N[C@@H](Cc1c[nH]c2ccccc12)C(=O)N[C@H](C(=O)N[C@H](C(=O)N[C@@H](C)C(=O)N1CCC[C@H]1C(=O)N[C@@H](CCCCN)C(=O)N[C@@H](CCCCN)C(=O)N[C@@H](CS)C(N)=O)[C@@H](C)CC)[C@@H](C)CC [Hm-AMP8] (H-RAVIYKIPYNAIASRWIIAPKKC-NH2)
- free sulfhydryl groups, percentage relative to CAMP + MPO without H2O2 (myeloperoxidase (MPO) [1]; 5 min incubation): 93 ± 5%
- free sulfhydryl groups, percentage relative to CAMP + MPO without H2O2 (myeloperoxidase (MPO) [1]; 90 min incubation): * 79 ± 6%
- IC50 (myeloperoxidase (MPO) [2]; 8 nM MPO heme): 1700 nM and 2000 nM
- Ki (myeloperoxidase (MPO) [2]; [6]): 1790 nM
- Ki (myeloperoxidase (MPO) [2]; [7]): 1100 nM
- IC50 (myeloperoxidase (MPO) [3]): 300 nM
- Ki (myeloperoxidase (MPO) [3]; 8 μM pept_1545 or 0.8 μM Hm-AMP8, 5–80 μM H2O2, 150 mM NaCl, 0.8 nM MPO, 50 mM Na-acetate pH 5.5, Hanes–Woolf, read-out: Inhibition constant (Ki) towards H2O2, chlorinating activity): 280 nM
- Ki (myeloperoxidase (MPO) [3]; [8]): 420 nM
- Ki (myeloperoxidase (MPO) [3]; [9]): 300 to 400 nM

Compound: N[C@@H](CS)C(=O)O [cysteine]
- bimolecular rate constant for reaction with Compound I (MPO [4]; free cysteine, ref [50]): 4100 M⁻¹ s⁻¹
- bimolecular rate constant for reaction with Compound II (MPO [4]; free cysteine, ref [50]): < 10 M⁻¹ s⁻¹
- peroxidase substrate behaviour of free amino acid (MPO [4]): poor peroxidase substrate

Compound: CC[C@H](C)[C@H](NC(=O)[C@H](C)NC(=O)[C@H](CCCCN)NC(=O)CNC(=O)[C@@H](NC(=O)[C@H](CC(C)C)NC(=O)[C@@H](N)Cc1ccccc1)[C@@H](C)CC)C(=O)N[C@@H](CCCCN)C(=O)N[C@@H](CCCNC(=N)N)C(=O)N[C@@H](CCCCN)C(=O)N[C@@H](Cc1ccccc1)C(=O)N[C@@H](CS)C(=O)N[C@@H](CC(C)C)C(=O)N[C@@H](CCCNC(=N)N)C(=O)N[C@@H](CO)C(=O)N[C@H](C(=O)N[C@@H](Cc1c[nH]c2ccccc12)C(=O)N[C@@H](CC(N)=O)C(=O)N[C@@H](C)C(N)=O)C(C)C [pept_1545] (H-FLIGKAIKRKFCLRSVWNA-NH2)
- decrease in amount of –SH groups (myeloperoxidase (MPO) [1]; 5 min incubation with MPO/H2O2): about 20%
- free sulfhydryl groups, percentage relative to CAMP + MPO without H2O2 (myeloperoxidase (MPO) [1]; 5 min incubation): * 80 ± 4%
- free sulfhydryl groups, percentage relative to CAMP + MPO without H2O2 (myeloperoxidase (MPO) [1]; 90 min incubation): * 76 ± 5%
- IC50 (myeloperoxidase (MPO) [2]; 8 nM MPO heme): 11200 nM
- Ki (myeloperoxidase (MPO) [2]; [6]): 52800 nM
- Ki (myeloperoxidase (MPO) [2]; [7]): 48300 nM
- IC50 (myeloperoxidase (MPO) [3]): 7400 nM
- Ki (myeloperoxidase (MPO) [3]; [8]): 19500 nM
- Ki (myeloperoxidase (MPO) [3]; [9]): 11000 to 20000 nM

Compound: N[C@@H](Cc1c[nH]c2ccccc12)C(=O)O [tryptophan]
- peroxidase substrate behaviour of free amino acid (MPO [4]): poor peroxidase substrate

Compound: N[C@@H](Cc1ccc(O)cc1)C(=O)O [tyrosine]
- bimolecular rate constant for reaction with Compound I (MPO [4]; free tyrosine, ref [42]): 770000 M⁻¹ s⁻¹
- bimolecular rate constant for reaction with Compound II (MPO [4]; free tyrosine, ref [42]): 16000 M⁻¹ s⁻¹
- peroxidase substrate behaviour of free amino acid (MPO [4]): accelerates MPO turnover

Compound: N-acetyl lysyltyrosylcysteine amide [KYC]
- formation of dityrosine (MPO [5]): formation of dityrosine only by KYS
- oxidation of tyrosine residues by MPO (MPO [5]): MPO oxidized tyrosine residues in both KYC and KYS

Compound: N-acetyl lysyltyrosylserine amide [KYS]
- formation of dityrosine (MPO [5]): formation of dityrosine only by KYS
- oxidation of tyrosine residues by MPO (MPO [5]): MPO oxidized tyrosine residues in both KYC and KYS
